pIC50: −log10 of the molar value.
Each compound was assayed against T1, human full-length MKNK1 (Homo sapiens (Human), UniProt Q9BUB5, T344D) (assay: MKNK1 kinase assay (TR-FRET, 10 μM ATP)). Details: ATP final conc. 10 μM; 15 min preincubation.
Assay type: biochemical
Description: MKNK1-inhibitory activity of compounds of the present invention was quantified employing the MKNK1 TR-FRET assay as described in the following paragraphs.
As substrate for the kinase reaction the biotinylated peptide biotin-Ahx-[…] (C-terminus in amide form) was used which can be purchased e.g. form the company Biosyntan (Berlin-Buch, Germany).
(§1) For the assay 50 nL of a 100 fold concentrated solution of the test compound in DMSO was pipetted into a black low volume 384 well microtiter plate (Greiner Bio-One, Frickenhausen, Germany), 2 μL of a solution of MKNK1 in aqueous assay buffer [50 mM HEPES pH 7.5, 5 mM magnesium chloride, 1.0 mM dithiothreitol, 0.005% (v/v) Nonidet-P40 (Sigma)] was added and the mixture was incubated for 15 min at 22° C. to allow pre-binding of the test compounds to the enzyme before the start of the kinase reaction. Then the kinase reaction was started by the addition of 3 μL of a solution of adenosine-tri-phosphate (ATP, 16.7 μM=>final conc. in the 5 μL assay volume is 10 μM) and substrate (0.1 μM=>final conc. in the 5 μL assay volume is 0.06 μM) in assay buffer and the resulting mixture was incubated for a reaction time of 45 min at 22° C. The concentration of MKNK1 was adjusted depending of the activity of the enzyme lot and was chosen appropriate to have the assay in the linear range, typical concentrations were in the range of 0.05 μg/ml. The reaction was stopped by the addition of 5 μL of a solution of TR-FRET detection reagents (5 nM streptavidine-XL665 [Cisbio Bioassays, Codolet, France] and 1 nM anti-ribosomal protein 56 (pSer236)-antibody from Invitrogen [#44921G] and 1 nM LANCE EU-W1024 labeled ProteinG [Perkin-Elmer, product no. AD0071]) in an aqueous EDTA-solution (100 mM EDTA, 0.1% (w/v) bovine serum albumin in 50 mM HEPES pH 7.5).
The resulting mixture was incubated for 1 h at 22° C. to allow the formation of complex between the phosphorylated biotinylated peptide and the detection reagents. Subsequently the amount of phosphorylated substrate was evaluated by measurement of the resonance energy transfer from the Eu-chelate to the streptavidine-XL. Therefore, the fluorescence emissions at 620 nm and 665 nm after excitation at 350 nm were measured in a TR-FRET reader, e.g. a Rubystar (BMG Labtechnologies, Offenburg, Germany) or a Viewlux (Perkin-Elmer). The ratio of the emissions at 665 nm and at 622 nm was taken as the measure for the amount of phosphorylated substrate.

T1 sequence (Q9BUB5 other isoform, or with tags, fused parts or gaps T344D): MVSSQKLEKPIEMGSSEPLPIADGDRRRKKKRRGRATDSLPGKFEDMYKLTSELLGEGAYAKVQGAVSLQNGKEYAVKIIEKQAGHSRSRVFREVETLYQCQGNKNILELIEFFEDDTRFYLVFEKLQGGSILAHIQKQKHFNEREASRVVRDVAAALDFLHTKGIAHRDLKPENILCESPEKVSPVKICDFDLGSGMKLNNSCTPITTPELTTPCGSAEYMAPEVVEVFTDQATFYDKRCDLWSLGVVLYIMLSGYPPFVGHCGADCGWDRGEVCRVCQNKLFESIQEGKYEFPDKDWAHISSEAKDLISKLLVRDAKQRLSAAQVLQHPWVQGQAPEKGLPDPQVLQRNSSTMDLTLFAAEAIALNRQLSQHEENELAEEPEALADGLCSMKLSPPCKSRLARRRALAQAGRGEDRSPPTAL

`CCN(CCO)c1ccc2ncc(-c3cc4ccccc4o3)n2n1` [Example 1] was tested. Which pIC50 did it give?
Its pIC50 is 8.15.

How did the pIC50 turn out when `CN(C[C@H](O)c1cccc(O)c1)c1ccc2ncc(-c3cc4ccccc4o3)n2n1` [Example 3] was run?
Its pIC50 is 9.00.

How did the pIC50 turn out when `COc1cccc2oc(-c3cnc4ccc(N(C)C[C@H](O)c5cccc(O)c5)nn34)cc12` [Example 9, 3-[(1R)-1-Hydroxy-2-{[3-(4-methoxy-1-benzofuran-2-yl)imidazo[1,2-b]pyridazin-6-yl](methyl)amino}eth-yl]phenol] was run?
Its pIC50 is 8.70.

How did the pIC50 turn out when `CN(CC(O)c1ccccc1)c1ccc2ncc(-c3cc4ccccc4o3)n2n1` (stereo not shown) [Example 10, 2-{[3-(1-Benzofuran-2-yl)imidazo[1,2-b]pyridazin-6-yl](methyl)amino}-1-phenylethanol] was run?
The pIC50 was 8.52.

What follows are compounds tested against T1, human full-length MKNK1 (assay: MKNK1 kinase high ATP assay (TR-FRET, 2 mM ATP)). Details: ATP final conc. 2 mM; 15 min preincubation.
Assay type: biochemical
Description: MKNK1-inhibitory activity at high ATP of compounds of the present invention after their preincubation with MKNK1 was quantified employing the TR-FRET-based MKNK1 high ATP assay as described in the following paragraphs.
As substrate for the kinase reaction the biotinylated peptide biotin-Ahx-[…] (C-terminus in amide form) was used, which can be purchased e.g. from the company Biosyntan (Berlin-Buch, Germany).
as §1, with “3.3 mM=>final” for “16.7 μM=>final”, “2 mM)” for “10 μM)”, “30” for “45”, “0.003 μg/mL.” for “0.05 μg/ml.”, “S6” for “56”, “4D0071])” for “AD0071])”
The resulting mixture was incubated for 1 h at 22° C. to allow the formation of complex between the phosphorylated biotinylated peptide and the detection reagents. Subsequently the amount of phosphorylated substrate was evaluated by measurement of the resonance energy transfer from the Eu-chelate to the streptavidine-XL.

How did the pIC50 turn out when `CN(CC(O)c1ccccc1)c1ccc2ncc(-c3cc4ccccc4o3)n2n1` (single isomer, unassigned; (+)) [Example 13, (+)-2-{[3-(1-Benzofuran-2-yl)imidazo[1,2-b]pyridazin-6-yl](methyl)amino}-1-phenylethanol] was run?
Its pIC50 is 7.62.

How did the pIC50 turn out when `CN(CC(O)c1ccccc1)c1ccc2ncc(-c3cc4ccccc4o3)n2n1` (single isomer, unassigned; (-)) [Example 12, (−)-2-{[3-(1-Benzofuran-2-yl)imidazo[1,2-b]pyridazin-6-yl](methyl)amino}-1-phenylethanol] was run?
The pIC50 was 8.40.

How did the pIC50 turn out when `CCN(CCO)c1ccc2ncc(-c3cc4ccccc4o3)n2n1` [Example 1] was run?
Its pIC50 is 7.70.

`COc1cccc2oc(-c3cnc4ccc(N(C)C[C@H](O)c5cccc(O)c5)nn34)cc12` [Example 9, 3-[(1R)-1-Hydroxy-2-{[3-(4-methoxy-1-benzofuran-2-yl)imidazo[1,2-b]pyridazin-6-yl](methyl)amino}eth-yl]phenol] was tested. Which pIC50 did it give?
Its pIC50 is 8.40.

How did the pIC50 turn out when `CN(CC(O)c1ccccc1)c1ccc2ncc(-c3cc4ccccc4o3)n2n1` (stereo not shown) [Example 10, 2-{[3-(1-Benzofuran-2-yl)imidazo[1,2-b]pyridazin-6-yl](methyl)amino}-1-phenylethanol] was run?
Its pIC50 is 8.40.

`CN(CC(O)c1cccnc1)c1ccc2ncc(-c3cc4ccccc4o3)n2n1` (stereo not shown) [Example 11, 2-{[3-(1-Benzofuran-2-yl)imidazo[1,2-b]pyridazin-6-yl](methyl)amino}-1-(pyridin-3-yl)ethanol] was tested. Which pIC50 did it give?
Its pIC50 is 8.70.

How did the pIC50 turn out when `CC(O)CN(C)c1ccc2ncc(-c3cc4ccccc4o3)n2n1` (stereo not shown) [Example 14, 1-{[3-(1-Benzofuran-2-yl)imidazo[1,2-b]pyridazin-6-yl](methyl)amino}propan-2-ol] was run?
The pIC50 was 8.05.

With `COc1nccc2oc(-c3cnc4ccc(N(C)CC(C)O)nn34)cc12` (stereo not shown) [Example 15, 1-{[3-(4-Methoxyfuro[3,2-c]pyridin-2-yl)imidazo[1,2-b]pyridazin-6-yl](methyl)amino}propan-2-ol] as the compound, how does the pIC50 read?
The pIC50 was 8.00.

With `OC(CN(c1ccc2ncc(-c3cc4ccccc4o3)n2n1)C1CC1)c1ccccc1` (stereo not shown) [Example 16, 2-{[3-(1-Benzofuran-2-yl)imidazo[1,2-b]pyridazin-6-yl](cyclopropyl)amino}-1-phenylethanol] as the compound, how does the pIC50 read?
The pIC50 was 7.62.

How did the pIC50 turn out when `COc1nccc2oc(-c3cnc4ccc(N(C)C(C)CO)nn34)cc12` (stereo not shown) [Example 17, 2-{[3-(4-Methoxyfuro[3,2-c]pyridin-2-yl)imidazo[1,2-b]pyridazin-6-yl](methyl)amino}propan-1-ol] was run?
Its pIC50 is 7.59.

With `OC(CN(c1ccc2ncc(-c3cc4ccccc4o3)n2n1)C1CC1)c1ccc(F)cc1` (stereo not shown) [Example 18, 2-{[3-(1-Benzofuran-2-yl)imidazo[1,2-b]pyridazin-6-yl](cyclopropyl)amino}-1-(4-fluorophenyl)ethanol] as the compound, how does the pIC50 read?
Its pIC50 is 7.38.

With `CC(CO)N(C)c1ccc2ncc(-c3cc4ccccc4o3)n2n1` (stereo not shown) [Example 19, 2-{[3-(1-Benzofuran-2-yl)imidazo[1,2-b]pyridazin-6-yl](methyl)amino}propan-1-ol] as the compound, how does the pIC50 read?
Its pIC50 is 7.33.

With `CC(C)CN(CC(O)c1ccccc1)c1ccc2ncc(-c3cc4ccccc4o3)n2n1` (stereo not shown) [Example 20, 2-{[3-(1-Benzofuran-2-yl)imidazo[1,2-b]pyridazin-6-yl](isobutyl)amino}-1-phenylethanol] as the compound, how does the pIC50 read?
Its pIC50 is 7.32.

With `CC(C)N(CC(O)c1ccccc1)c1ccc2ncc(-c3cc4ccccc4o3)n2n1` (stereo not shown) [Example 21, 2-{[3-(1-Benzofuran-2-yl)imidazo[1,2-b]pyridazin-6-yl](isopropyl)amino}-1-phenylethanol] as the compound, how does the pIC50 read?
Its pIC50 is 7.28.

`CN(CC(O)c1ccccc1)c1ccc2ncc(-c3cc4ccncc4o3)n2n1` (stereo not shown) [Example 22, 2-{[3-(Furo[2,3-c]pyridin-2-yl)imidazo[1,2-b]pyridazin-6-yl](methyl)amino}-1-phenylethanol] was tested. Which pIC50 did it give?
The pIC50 was 9.00.

With `CN(CC(O)c1ccccc1)c1ccc2ncc(-c3cc4cnccc4o3)n2n1` (stereo not shown) [Example 23, 2-{[3-(Furo[3,2-c]pyridin-2-yl)imidazo[1,2-b]pyridazin-6-yl](methyl)amino}-1-phenylethanol] as the compound, how does the pIC50 read?
The pIC50 was 9.00.

`COc1nccc2oc(-c3cnc4ccc(N(C)CC(O)c5ccccc5)nn34)cc12` (stereo not shown) [Example 24, 2-{[3-(4-Methoxyfuro[3,2-c]pyridin-2-yl)imidazo[1,2-b]pyridazin-6-yl](methyl)amino}-1-phenylethanol] was tested. Which pIC50 did it give?
Its pIC50 is 8.52.

With `CCOc1nccc2oc(-c3cnc4ccc(N(C)CC(O)c5ccccc5)nn34)cc12` (stereo not shown) [Example 25, 2-{[3-(4-Ethoxyfuro[3,2-c]pyridin-2-yl)imidazo[1,2-b]pyridazin-6-yl](methyl)amino}-1-phenylethanol] as the compound, how does the pIC50 read?
Its pIC50 is 8.30.
